Data published in patent publication US6608082B1, “Treatment of erectile dysfunction using isoquinoline compound melanocortin receptor ligands” (Lion Bioscience AG, priority 1998, dated 2003).

How the values were obtained:
MCR-1 = biological target: T1, MCR-1 (Homo sapiens, UniProt Q01726); test: Melanocortin receptor binding assay, competition with 125I-HP 467, HEK 293 cells expressing hMCR-1; conditions: inhibition of binding of 125I-HP 467, HEK 293 cells expressing MCR-1; read-out: MC-1 IC50
T1 construct: expressed in transfected cells; host or cells: HEK 293
Outline: (§1)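 Test compounds compete on intact HEK 293 cells carrying hMCR-1 (2×10^4 per tube) or hMCR-4 (4×10^3 per tube), suspended in PBS, 10% calf serum, 1 mM CaCl2.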

MCR-4 = biological target: T2, MCR-4 (Homo sapiens, UniProt P32245); test: Melanocortin receptor binding assay, competition with 125I-HP 467, HEK 293 cells expressing hMCR-4; conditions: inhibition of binding of 125I-HP 467, HEK 293 cells expressing MCR-4; read-out: MC-4 IC50
T2 construct: expressed in transfected cells; host or cells: HEK 293
Outline: as §1

T2 sequence (P32245 whole entry): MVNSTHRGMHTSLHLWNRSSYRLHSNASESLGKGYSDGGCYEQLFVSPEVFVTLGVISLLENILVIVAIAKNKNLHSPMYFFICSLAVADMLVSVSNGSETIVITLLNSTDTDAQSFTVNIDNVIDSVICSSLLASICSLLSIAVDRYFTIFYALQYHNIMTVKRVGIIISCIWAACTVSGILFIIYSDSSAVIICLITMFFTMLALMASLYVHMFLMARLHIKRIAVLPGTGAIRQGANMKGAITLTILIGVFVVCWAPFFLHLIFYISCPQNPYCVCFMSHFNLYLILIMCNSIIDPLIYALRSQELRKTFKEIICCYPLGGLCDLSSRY
T1 sequence (Q01726 whole entry): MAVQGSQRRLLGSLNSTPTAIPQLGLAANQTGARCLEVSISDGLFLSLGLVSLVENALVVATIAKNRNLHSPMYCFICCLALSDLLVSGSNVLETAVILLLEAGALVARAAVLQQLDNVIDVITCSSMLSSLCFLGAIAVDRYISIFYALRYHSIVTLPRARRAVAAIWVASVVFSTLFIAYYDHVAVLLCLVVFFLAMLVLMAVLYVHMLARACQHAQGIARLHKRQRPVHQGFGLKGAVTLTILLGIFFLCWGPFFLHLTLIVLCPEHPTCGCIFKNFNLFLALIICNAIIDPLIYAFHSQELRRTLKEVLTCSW

Structure (SMILES)	IC50 (MCR-1) [nM]	IC50 (MCR-4) [nM]
CCNc1ccc(C2C(CN)c3ccccc3CN2CCCC(CN)NCCCCNCCc2ccccc2)cc1 (stereo not drawn) [TRG 2419-12]	73	16700
CCNc1ccc(C2C(CN)c3ccccc3CN2CCCC(CN)NCCCCN2CCCCC2)cc1 (stereo not drawn) [TRG 2419-13]	73	2510
CCNc1ccc(C2C(CNCCc3ccccc3)c3ccccc3CN2CCCC(CN)NCCCCCNC(C)C)cc1 (stereo not drawn) [TRG 2420-1]	46	1500
CCNc1ccc(C2C(CNCCc3ccccc3)c3ccccc3CN2CCCC(CN)NCCCCCNCc2ccccc2)cc1 (stereo not drawn) [TRG 2420-2]	76	4050
CCNc1ccc(C2C(CNCCc3ccccc3)c3ccccc3CN2CCCC(CN)NCCCCCN(CC)CC)cc1 (stereo not drawn) [TRG 2420-3]	30	8230
CCNc1ccc(C2C(CNCCc3ccccc3)c3ccccc3CN2CCCC(CN)NCCCCCNCCc2ccccc2)cc1 (stereo not drawn) [TRG 2420-4]	68	4170
CCNc1ccc(C2C(CNCCc3ccccc3)c3ccccc3CN2CCCC(CN)NCC2CC2CNC(C)C)cc1 (stereo not drawn) [TRG 2420-5]	43	9880
CCNc1ccc(C2C(CNCCc3ccccc3)c3ccccc3CN2CCCC(CN)NCC2CC2CNCc2ccccc2)cc1 (stereo not drawn) [TRG 2420-6]	103	5130
CCNc1ccc(C2C(CNCCc3ccccc3)c3ccccc3CN2CCCC(CN)NCC2CC2CN(CC)CC)cc1 (stereo not drawn) [TRG 2420-7]	63	1810
CCNc1ccc(C2C(CNCCc3ccccc3)c3ccccc3CN2CCCC(CN)NCC2CC2CNCCc2ccccc2)cc1 (stereo not drawn) [TRG 2420-8]	208	2360
CCNc1ccc(C2C(CNCCc3ccccc3)c3ccccc3CN2CCCC(CN)NCCOCCNC(C)C)cc1 (stereo not drawn) [TRG 2420-9]	40	3230
CCNc1ccc(C2C(CNCCc3ccccc3)c3ccccc3CN2CCCC(CN)NCCOCCNCc2ccccc2)cc1 (stereo not drawn) [TRG 2420-10]	55	940
CCNc1ccc(C2C(CNCCc3ccccc3)c3ccccc3CN2CCC[C@@H](CN)NCCOCCN(CC)CC)cc1 (stereo partly drawn) [TRG 2420-11]	28	4630
CCNc1ccc(C2C(CNCCc3ccccc3)c3ccccc3CN2CCCC(CN)NCCOCCNCCc2ccccc2)cc1 (stereo not drawn) [TRG 2420-12]	79	1530
CCNc1ccc(C2C(CNCCc3ccccc3)c3ccccc3CN2CCCC(CN)NCc2ccccc2CNC(C)C)cc1 (stereo not drawn) [TRG 2420-13]	65	670
CCNc1ccc(C2C(CNCCc3ccccc3)c3ccccc3CN2CCCC(CN)NCc2ccccc2CNCc2ccccc2)cc1 (stereo not drawn) [TRG 2420-14]	135	290
CCNc1ccc(C2C(CNCCc3ccccc3)c3ccccc3CN2CCCC(CN)NCc2ccccc2CN(CC)CC)cc1 (stereo not drawn) [TRG 2420-15]	70	1370
CCNc1ccc(C2C(CNCCc3ccccc3)c3ccccc3CN2CCCC(CN)NCc2ccccc2CNCCc2ccccc2)cc1 (stereo not drawn) [TRG 2420-16]	164	1200
CCNc1ccc(C2C(CN)c3ccccc3CN2CCCC(CN)NCC2CC2CNC(C)C)cc1 (stereo not drawn) [TRG 2420-25]	103	4820
CCNc1ccc(C2C(CN)c3ccccc3CN2CCCC(CN)NCC2CC2CNCc2ccccc2)cc1 (stereo not drawn) [TRG 2420-26]	93	5010
CCNc1ccc(C2C(CN)c3ccccc3CN2CCCC(CN)NCC2CC2CN(CC)CC)cc1 (stereo not drawn) [TRG 2420-27]	40	4190
CCNc1ccc(C2C(CN)c3ccccc3CN2CCCC(CN)NCC2CC2CNCCc2ccccc2)cc1 (stereo not drawn) [TRG 2420-28]	203	4080
NCC(CCCCN1Cc2ccccc2C(CNCCc2ccccc2)C1c1cc(C(F)(F)F)cc(C(F)(F)F)c1)NCc1ccccc1 (stereo not drawn) [TRG 2421-1]	4180	1780
NCC(CCCCN1Cc2ccccc2C(CNCCc2ccccc2)C1c1cc(C(F)(F)F)cc(C(F)(F)F)c1)NCc1ccc(Br)cc1 (stereo not drawn) [TRG 2421-3]	4910	9640
